Source: publication PMC6017735, “Novel Semisynthetic Derivatives of Bile Acids as Effective Tyrosyl-DNA Phosphodiesterase 1 Inhibitors” (Molecules : A Journal of Synthetic Chemistry and Natural …, 2018)
“And” between values parts separate entries of the source, which are not always exact repeats. Equal values may be shown once.

Molecular target: T1, Tdp1 (Homo sapiens, UniProt Q9NUW8)
T1 construct: inferred from the pET 16B vector and the Ni-chelating resin) (N); made in house
Experiment: Real-time detection of Tdp1 activity with FAM-BHQ1 oligonucleotide biosensor
Type: biochemical
Details: IC50 (concentration that inhibits the activity of the enzyme by 50%), samples synthesized by the authors; 50 nM biosensor, 1.3 nM Tdp1, 26 °C
Source text: For testing, we used recently designed oligonucleotide biosensors for the real-time detection of Tdp1 activity based on the ability of Tdp1 to remove fluorophore quenchers from the 3′-end of DNA [27]. The hexadecameric oligonucleotide carried 5(6)-carboxyfluorescein (FAM) at the 5′-end and fluorophore quencher BHQ1 (Black Hole Quencher-1) at the 3′-end. Tdp1 inhibitors prevent the removal of fluorophore quenchers, thus reducing fluorescence intensity.
The recombinant Tdp1 was purified to homogeneity by chromatography on Ni-chelating resin and phosphocellulose P11 as described using the plasmid pET 16B-Tdp1 kindly provided by Dr. K.W. Caldecott (University of Sussex, United Kingdom).
Real-Time Detection of Tdp1 Activity. The Tdp1 activity measurements were carried out as described. Briefly, Tdp1-biosensor with a final concentration of 50 nM was incubated in a volume of 200 μL containing a Tdp1 buffer (50 mM Tris-HCl pH8.0, 50 mM NaCl, 7 mM β-mercaptoethanol) supplemented with purified 1.3 nM Tdp1 and various concentrations of the inhibitor in a 1.5% DMSO solution. Fluorescence measurements (Ex485/Em520 nm) were carried out during the linear phase of reaction (from 0 to 8 min) every 55 s. The reactions were incubated at a constant temperature of 26 °C in a POLARstar OPTIMA fluorimeter, BMG LABTECH, GmbH. The influence of compounds was evaluated by comparing the fluorescence increase rate in the presence of compounds to that of the DMSO control wells.

T1 sequence (Q9NUW8 whole entry): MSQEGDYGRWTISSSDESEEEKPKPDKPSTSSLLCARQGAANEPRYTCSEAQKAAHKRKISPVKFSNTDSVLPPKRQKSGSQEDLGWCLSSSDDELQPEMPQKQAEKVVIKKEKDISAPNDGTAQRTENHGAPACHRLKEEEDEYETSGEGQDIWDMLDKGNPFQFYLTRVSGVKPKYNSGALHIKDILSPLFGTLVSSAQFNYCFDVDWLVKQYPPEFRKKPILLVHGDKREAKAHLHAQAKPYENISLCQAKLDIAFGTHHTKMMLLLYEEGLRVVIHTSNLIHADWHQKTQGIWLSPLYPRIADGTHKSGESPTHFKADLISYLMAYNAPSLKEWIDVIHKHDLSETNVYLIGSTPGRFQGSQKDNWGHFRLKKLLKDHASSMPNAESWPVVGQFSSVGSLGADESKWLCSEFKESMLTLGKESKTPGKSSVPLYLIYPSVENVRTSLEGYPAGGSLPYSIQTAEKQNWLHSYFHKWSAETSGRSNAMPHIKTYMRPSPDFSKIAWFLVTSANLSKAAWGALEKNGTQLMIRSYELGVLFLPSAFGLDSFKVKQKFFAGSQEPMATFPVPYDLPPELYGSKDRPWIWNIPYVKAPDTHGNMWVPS

| SMILES | IC50 |
| --- | --- |
| CC(=O)OC1CCC2(C)C(C1)CC(OC(C)=O)C1C2CCC2(C)C(C(C)CCC(=O)NCCc3c[nH]c4ccccc34)CCC12 (centres unmarked) [Compound 1a] | 320 ± 110 nM |
| CC(CCC(=O)NCCc1c[nH]c2ccccc12)C1CCC2C3C(O)CC4CC(O)CCC4(C)C3CCC12C (centres unmarked) [Compound 1b] | 2650 ± 300 nM |
| CC(=O)OC1CCC2(C)C(C1)CC(OC(C)=O)C1C2CCC2(C)C(C(C)CCC(=O)NCCc3c[nH]c4ccccc34)CCC12 (centres unmarked) [Compound 2a] | 380 ± 120 nM |
| CC(CCC(=O)NCCc1c[nH]c2ccccc12)C1CCC2C3C(O)CC4CC(O)CCC4(C)C3CCC12C (centres unmarked) [Compound 2b] | ~2600 nM and 2600 nM |
| CC(=O)OC1CCC2(C)C(CCC3C2CC(OC(C)=O)C2(C)C(C(C)CCC(=O)NCCc4c[nH]c5ccccc45)CCC32)C1 (centres unmarked) [Compound 3a] | 650 ± 160 nM |
| CC(CCC(=O)NCCc1c[nH]c2ccccc12)C1CCC2C3CCC4CC(O)CCC4(C)C3CC(O)C12C (centres unmarked) [Compound 3b] | 2700 ± 200 nM |
| CC(=O)OC1CC2C(CCC3CC(O)CCC32C)C2CCC(C(C)CCC(=O)NCCc3c[nH]c4ccccc34)C12C (centres unmarked) [Compound 3c] | 950 ± 50 nM |
| CC(=O)OC1CCC2(C)C(CCC3C2CC(O)C2(C)C(C(C)CCC(=O)NCCc4c[nH]c5ccccc45)CCC32)C1 (centres unmarked) [Compound 3d] | 480 ± 40 nM |
| CC(=O)O[C@@H]1CC[C@@]2(C)[C@H](CC[C@@H]3[C@@H]2C[C@H](OC(C)=O)[C@]2(C)[C@@H]([C@H](C)CCC(=O)Nc4ccccc4)CC[C@@H]32)C1 [Compound 4a, N-Phenyl-3α,12α-diacetoxy-5β-cholan-24-amide] | 430 ± 130 nM |
| C[C@H](CCC(=O)Nc1ccccc1)[C@H]1CC[C@H]2[C@@H]3CC[C@@H]4C[C@H](O)CC[C@]4(C)[C@H]3C[C@H](O)[C@]12C [Compound 4b, N-Phenyl-3α,12α-dihydroxy-5β-cholan-24-amide] | 6700 ± 700 nM |
| CC(=O)O[C@@H]1CC[C@@]2(C)[C@H](CC[C@@H]3[C@@H]2C[C@H](OC(C)=O)[C@]2(C)[C@@H]([C@H](C)CCC(=O)Nc4ccc(Br)cc4)CC[C@@H]32)C1 [Compound 5a, N-(4′-Bromophenyl)-3α,12α-diacetoxy-5β-cholan-24-amide] | 420 ± 10 nM |
| C[C@H](CCC(=O)Nc1ccc(Br)cc1)[C@H]1CC[C@H]2[C@@H]3CC[C@@H]4C[C@H](O)CC[C@]4(C)[C@H]3C[C@H](O)[C@]12C [Compound 5b, N-(4′-Bromophenyl)-3α,12α-dihydroxy-5β-cholan-24-amide] | 1300 ± 200 nM |
| CC(=O)O[C@@H]1CC[C@@]2(C)[C@H](CC[C@@H]3[C@@H]2C[C@H](OC(C)=O)[C@]2(C)[C@@H]([C@H](C)CCC(=O)Nc4ccc(C)cc4)CC[C@@H]32)C1 [Compound 6a, N-(p-Tolyl)-3α,12α-diacetoxy-5β-cholan-24-amide] | 1000 ± 50 nM |
| Cc1ccc(NC(=O)CC[C@@H](C)[C@H]2CC[C@H]3[C@@H]4CC[C@@H]5C[C@H](O)CC[C@]5(C)[C@H]4C[C@H](O)[C@]23C)cc1 [Compound 6b, N-(p-Tolyl)-3α,12α-dihydroxy-5β-cholan-24-amide] | 7600 ± 3900 nM |
| CC(=O)O[C@@H]1CC[C@@]2(C)[C@H](CC[C@@H]3[C@@H]2C[C@H](OC(C)=O)[C@]2(C)[C@@H]([C@H](C)CCC(=O)Nc4cccnc4)CC[C@@H]32)C1 [Compound 7a, N-(Pyridin-3-yl)-3α,12α-diacetoxy-5β-cholan-24-amide] | 4080 ± 80 nM |
| C[C@H](CCC(=O)Nc1cccnc1)[C@H]1CC[C@H]2[C@@H]3CC[C@@H]4C[C@H](O)CC[C@]4(C)[C@H]3C[C@H](O)[C@]12C [Compound 7b, N-(Pyridin-3-yl)-3α,12α-dihydroxy-5β-cholan-24-amide] | > 15000 nM |
| CC(=O)O[C@@H]1CC[C@]2(C)C3C[C@H](OC(C)=O)[C@@]4(C)C(CC[C@@H]4[C@H](C)CCC(=O)NC45CC6CC(CC(C6)C4)C5)[C@@H]3CC[C@@H]2C1 (stereo partly drawn) [Compound 8a, N-(1′-Adamantyl)-3α,12α-diacetoxy-5β-cholan-24-amide] | 470 ± 80 nM |
| C[C@H](CCC(=O)NC12CC3CC(CC(C3)C1)C2)[C@H]1CCC2[C@@H]3CC[C@@H]4C[C@H](O)CC[C@]4(C)C3C[C@H](O)[C@@]21C (stereo partly drawn) [Compound 8b, N-(1′-Adamantyl)-3α,12α-dihidroxy-5β-cholan-24-amide] | 2300 ± 400 nM |
| CC(=O)OC1CCC2(C)C(CCC3C2CC(OC(C)=O)C2(C)C(C(C)CCC(=O)NCCc4cc(C(C)(C)C)c(O)c(C(C)(C)C)c4)CCC32)C1 (stereo not drawn) [Compound 9a, N-(2′′-(3′,5′-Di-tret-buthyl-4′-hydroxyphenyl)-ethyl)-3α,12α-diacetoxy-5β-cholan-24-amide] | 290 ± 120 nM |
| CCN(CC)CCCNC(=O)CC[C@@H](C)[C@H]1CCC2[C@@H]3CC[C@@H]4C[C@H](OC(C)=O)CC[C@]4(C)C3C[C@H](OC(C)=O)[C@@]21C (stereo partly drawn) [Compound 10a, N-(3′,3′-Diethylaminopropyl)-3α,12α-diacetoxy-5β-cholan-24-amide] | > 15000 nM |
| CC(=O)O[C@@H]1CC[C@@]2(C)[C@H](CC[C@@H]3[C@@H]2C[C@H](OC(C)=O)[C@]2(C)[C@@H]([C@H](C)CCC(=O)NCCCN4CCOCC4)CC[C@@H]32)C1 [Compound 11a, N-(3′-Morpholinopropyl)-3α,12α-diacetoxy-5β-cholan-24-amide] | > 15000 nM |

Same assay, conditions: commercial sample of compound 1b (virtual screening hit); read-out: IC50

| SMILES | IC50 [nM] |
| --- | --- |
| CC(CCC(=O)NCCc1c[nH]c2ccccc12)C1CCC2C3C(O)CC4CC(O)CCC4(C)C3CCC12C (centres unmarked) [Compound 1b] | 300 |

Molecular target: T1, Tdp1
Experiment: not given
Details: single- and double-stranded substrates of DNA; cited from earlier work

| SMILES | Tdp1 inhibition |
| --- | --- |
| N=C(N)c1ccc(-c2ccc(-c3ccc(C(=N)N)cc3)o2)cc1 [Fur, furamidine] | low micromolar concentrations |
